# From patent US10568879B2 (GALAPAGOS NV, priority 2015, dated 2020)
# Molecular target: T1, GPR84 (Homo sapiens, UniProt Q9NQS5)
# T1 construct: expressed in transfected cells
# Experiment: GPR84 [35S]GTPγS binding assay
# Assay type: biochemical
# Details: 3,3′-diindolylmethane at EC80; membranes from stable cell line over expressing GPR84
# Protocol: The following assay can be used for determination of GPR84 activation. The [^35S]GTPγS binding assay measures the level of G protein activation following agonist occupation of a GPCR, by determining the binding of the non-hydrolysable analog [^35S]GTPγS to Gα subunits.
# The assay is performed in a 96-well plate where the following reagents are added. First 50 μL compound is added into the assay plate, followed by addition of 20 μL 3,3′-diindolylmethane at EC80 concentration (concentration which gives 80% of the activity of GPR84). Then, 30 μL of a mixture consisting of membranes-GTPγS-SpA beads is added [mixture consists of 20 μg/well membranes derived from stable cell line over expressing GPR84 (membranes are pre-incubated with 0.1 μM GDP for 15 min at 4° C.), 0.1 nM [^35S]GTPγS (Perkin Elmer, NEG030) and 0.5 mg/well PVT-WGA SpA beads (Perkin Elmer, RPNQ0001)]. All components are diluted in assay buffer containing 20 mM Tris pH 7.5; 5 mM MgCl2; 250 mM NaCl; 0.05% BSA; 75 μg/mL saponin. After an incubation of 90 min at room temperature, 20 μL CsCl2 0.8 M (MP Biomedicals, 02150589) is added, followed by centrifugation at 2000 rpm during 20 min. Plates are read on a topcount reader (perkin elmer) immediately after centrifugation (readout time, 1 min/well).
# T1 sequence (Q9NQS5 whole entry): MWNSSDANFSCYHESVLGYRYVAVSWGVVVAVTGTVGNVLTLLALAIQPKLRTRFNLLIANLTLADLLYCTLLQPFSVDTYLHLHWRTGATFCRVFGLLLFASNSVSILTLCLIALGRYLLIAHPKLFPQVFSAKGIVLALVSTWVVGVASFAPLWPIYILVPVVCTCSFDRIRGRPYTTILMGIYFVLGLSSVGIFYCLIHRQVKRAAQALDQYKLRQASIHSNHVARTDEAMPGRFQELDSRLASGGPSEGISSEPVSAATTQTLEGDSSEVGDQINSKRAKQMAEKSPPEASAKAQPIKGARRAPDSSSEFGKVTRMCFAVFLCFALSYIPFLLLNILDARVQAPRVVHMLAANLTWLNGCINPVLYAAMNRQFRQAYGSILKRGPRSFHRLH
row,Structure (SMILES),IC50 [nM]
1,"COc1cc2c(cc1OC)-c1c(C)c(=O)cc(NCC3CCCO3)n1CC2 (centres unmarked) [Compound 2, 9,10-dimethoxy-1-methyl-4-(tetrahydrofuran-2-ylmethylamino)-6,7-dihydrobenzo[a]quinolizin-2-one]",> 1000
2,"CCc1c2n(c(NCC3CCCO3)cc1=O)CCc1cc(O)ccc1-2 (centres unmarked) [Compound 3, 1-ethyl-9-hydroxy-4-(tetrahydrofuran-2-ylmethylamino)-6,7-dihydrobenzo[a]quinolizin-2-one]",> 1000
3,"COc1cc2c(cc1OC)-c1cc(=O)cc(NCC3COCCO3)n1CC2 (centres unmarked) [Compound 5, 4-[([1,4]Dioxan-2-ylmethyl)-amino]-9,10-dimethoxy-6,7-dihydro-pyrido[2,1-a]isoquinolin-2-one]",> 1000
4,"Cc1c2n(c(OCC3CCCO3)cc1=O)CCc1cc(OCCN(C)C)ccc1-2 (centres unmarked) [Compound 53, 9-(2-dimethylaminoethyloxy)-1-methyl-4-(tetrahydrofuran-2-ylmethoxy)-6,7-dihydrobenzo[a]quinolizin-2-one]",> 1000
5,"Cc1c2n(c(OCC3CCCCO3)cc1=O)CCc1cc(OCCN(C)C)ccc1-2 (centres unmarked) [Compound 54, 9-(2-dimethylaminoethyloxy)-1-methyl-4-(tetrahydropyran-2-ylmethoxy)-6,7-dihydrobenzo[a]quinolizin-2-one]",500 to 1000
6,"Cc1c2n(c(OC[C@@H]3COCCO3)cc1=O)CCc1cc(OCCN(C)C)ccc1-2 [Compound 55, 9-(2-dimethylaminoethyloxy)-4-[[(2S)-1,4-dioxan-2-yl]methoxy]-1-methyl-6,7-dihydrobenzo[a]quinolizin-2-one]",500 to 1000
7,"Cc1c2n(c(OC[C@@H]3COCCO3)cc1=O)CCc1cc(OS(C)(=O)=O)ccc1-2 [Compound 56, [4-[[(2S)-1,4-dioxan-2-yl]methoxy]-1-methyl-2-oxo-6,7-dihydrobenzo[a]quinolizin-9-yl] methanesulfonate]",100 to 500
8,"Cc1c2n(c(OC[C@@H]3COCCO3)cc1=O)CCc1cc(N3CCNCC3)ccc1-2 [Compound 66, 4-[[(2S)-1,4-dioxan-2-yl]methoxy]-1-methyl-9-piperazin-1-yl-6,7-dihydrobenzo[a]quinolizin-2-one]",> 1000
9,"Cc1c2n(c(OC[C@@H]3COCCO3)cc1=O)CCc1cc(S(=O)(=O)c3ccccc3)ccc1-2 [Compound 67, 9-(benzenesulfonyl)-4-[[(2S)-1,4-dioxan-2-yl]methoxy]-1-methyl-6,7-dihydrobenzo[a]quinolizin-2-one]",100 to 500
10,"Cc1c2n(c(OC[C@@H]3COCCO3)cc1=O)CCc1cc(N(C)C(=O)C3CC3)ccc1-2 [Compound 73, N-[4-[[(2S)-1,4-dioxan-2-yl]methoxy]-1-methyl-2-oxo-6,7-dihydrobenzo[a]quinolizin-9-yl]-N-methyl-cyclopropanecarboxamide]",100 to 500
11,"Cc1c2n(c(OC[C@@H]3COCCO3)cc1=O)CCc1cc(C(=O)NC3CC3)ccc1-2 [Compound 84, N-cyclopropyl-4-[[(2S)-1,4-dioxan-2-yl]methoxy]-1-methyl-2-oxo-6,7-dihydrobenzo[a]quinolizine-9-carboxamide]",> 1000
12,"Cc1c2n(c(OC[C@@H]3COCCO3)cc1=O)CCc1cc(O)ccc1-2 [Compound 85, 4-[[(2S)-1,4-dioxan-2-yl]methoxy]-9-hydroxy-1-methyl-6,7-dihydrobenzo[a]quinolizin-2-one]",100 to 500
13,"Cc1c2n(c(OC[C@@H]3COCCO3)cc1=O)CCc1cc(N3CC4(COC4)C3)ccc1-2 [Compound 87, 4-[[(2S)-1,4-dioxan-2-yl]methoxy]-1-methyl-9-(6-oxa-2-azaspiro[3.3]heptan-2-yl)-6,7-dihydrobenzo[a]quinolizin-2-one]",500 to 1000
14,"Cc1c2n(c(OC[C@@H]3COCCO3)cc1=O)CCc1cc(C(=O)N(C)C3CC3)ccc1-2 [Compound 88, N-cyclopropyl-4-[[(2)S-1,4-dioxan-2-yl]methoxy]-N,1-dimethyl-2-oxo-6,7-dihydrobenzo[a]quinolizine-9-carboxamide]",> 1000
15,"Cc1c2n(c(OC[C@@H]3COCCO3)cc1=O)CCc1cc(N3CC(C(C)(C)O)C3)ccc1-2 [Compound 92, 4-[[(2S)-1,4-dioxan-2-yl]methoxy]-9-[3-(1-hydroxy-1-methyl-ethyl)azetidin-1-yl]-1-methyl-6,7-dihydrobenzo[a]quinolizin-2-one]",100 to 500
16,"Cc1c2n(c(OC[C@@H]3COCCO3)cc1=O)CCc1cc(N3CC(S(C)(=O)=O)C3)ccc1-2 [Compound 94, 4-[[(2S)-1,4-dioxan-2-yl]methoxy]-1-methyl-9-(3-methylsulfonylazetidin-1-yl)-6,7-dihydrobenzo[a]quinolizin-2-one]",500 to 1000

# Further lines, results first:
row,IC50 [nM],Structure (SMILES)
1,0.01 to 100,"Cc1c2n(c(OCC3CCCO3)cc1=O)CCc1cc(OCC3CCCOC3)ccc1-2 (centres unmarked) [Compound 47, 1-methyl-4-(tetrahydrofuran-2-ylmethoxy)-9-(tetrahydropyran-3-ylmethoxy)-6,7-dihydrobenzo[a]quinolizin-2-one]"
2,0.01 to 100,"Cc1c2n(c(OC[C@@H]3CCCO3)cc1=O)CCc1cc(OCc3ccccn3)ccc1-2 [Compound 57, 1-methyl-9-(2-pyridylmethoxy)-4-[[(2S)-tetrahydrofuran-2-yl]methoxy]-6,7-dihydrobenzo[a]quinolizin-2-one]"
3,0.01 to 100,"Cc1c2n(c(OC[C@@H]3COCCO3)cc1=O)CCc1cc(OC(F)F)ccc1-2 [Compound 59, 9-(difluoromethoxy)-4-[[(2S)-1,4-dioxan-2-yl]methoxy]-1-methyl-6,7-dihydrobenzo[a]quinolizin-2-one]"
4,0.01 to 100,"Cc1c2n(c(OC[C@@H]3COCCO3)cc1=O)CCc1cc(OC[C@@H]3COCCO3)ccc1-2 [Compound 62, 4,9-bis[[(2S)-1,4-dioxan-2-yl]methoxy]-1-methyl-6,7-dihydrobenzo[a]quinolizin-2-one]"
5,0.01 to 100,"Cc1c2n(c(OC[C@@H]3COCCO3)cc1=O)CCc1cc(Sc3ccccc3)ccc1-2 [Compound 64, 4-[[(2S)-1,4-dioxan-2-yl]methoxy]-1-methyl-9-phenylsulfanyl-6,7-dihydrobenzo[a]quinolizin-2-one]"
6,0.01 to 100,Cc1c2n(c(OC[C@@H]3COCCO3)cc1=O)CCc1cc(N3CCN(S(C)(=O)=O)CC3)ccc1-2 [Compound 68]
7,0.01 to 100,"Cc1c2n(c(OC[C@@H]3COCCO3)cc1=O)CCc1cc(C3=CCN(C(=O)OC(C)(C)C)CC3)ccc1-2 [Compound 74, tert-butyl 4-[4-[[(2S)-1,4-dioxan-2-yl]methoxy]-1-methyl-2-oxo-6,7-dihydrobenzo[a]qunolizin-9-yl]-3,6-dihydro-2H-pyridine-1-carboxylate]"
8,0.01 to 100,"Cc1c2n(c(OC[C@@H]3COCCO3)cc1=O)CCc1cc(C3CCN(C(=O)OC(C)(C)C)CC3)ccc1-2 [Compound 75, tert-butyl 4-[4-[[(2S)-1,4-dioxan-2-yl]methoxy]-1-methyl-2-oxo-6,7-dihydrobenzo[a]quinolizin-9-yl]piperidine-1-carboxylate]"
9,0.01 to 100,"COc1ccc2c(c1)CCn1c(OC[C@@H]3COCCO3)cc(=O)c(C)c1-2 [Compound 89, 4-[[(2S)-1,4-dioxan-2-yl]methoxy]-9-methoxy-1-methyl-6,7-dihydrobenzo[a]quinolizin-2-one]"
10,0.01 to 100,"Cc1c2n(c(OC[C@@H]3COCCO3)cc1=O)CCc1cc(N3CC(C)(C)C3)ccc1-2 [Compound 96, 9-(3,3-dimethylazetidin-1-yl)-4-[[(2S)-1,4-dioxan-2-yl]methoxy]-1-methyl-6,7-dihydrobenzo[a]quinolizin-2-one]"
